Legend:
[1] = biological target: T1, central serotonin receptor sites (type S2) (Rattus norvegicus, UniProt P14842); assay: Affinity for central serotonin receptor sites (type S2), tritiated ketanserin binding
T1 construct: central serotonin receptor sites (type S2); from tissue; the cited Leysen 1982 method used rat prefrontal/frontal cortex, own knowledge
Protocol: The affinity of carpipramine for central serotonin receptor sites (type S2) was determined by a technique based on that of J. E. LEYSEN et al., Mol. Pharmacol. 21, 301 (1982), which consists in measuring the affinity of the product for binding sites for tritiated ketanserin. In this test, the IC50 of carpipramine is 3 nM.

[2] = tested on: mescaline-induced heat twitches; assay: Antagonism of mescaline-induced heat twitches in mice; format: in vivo; details: Mus musculus, sc, subcutaneously administered, read-out: AD50 (the source's name)
Protocol: In this test, the AD50 of subcutaneously administered carpipramine is 8 mg/kg.

[3] = Acute oral toxicity in mice; details: mouse, in vivo, po; administered orally in mice
mice = assay: Acute oral toxicity in mice; details: mouse, in vivo

T1 sequence (P14842 whole entry): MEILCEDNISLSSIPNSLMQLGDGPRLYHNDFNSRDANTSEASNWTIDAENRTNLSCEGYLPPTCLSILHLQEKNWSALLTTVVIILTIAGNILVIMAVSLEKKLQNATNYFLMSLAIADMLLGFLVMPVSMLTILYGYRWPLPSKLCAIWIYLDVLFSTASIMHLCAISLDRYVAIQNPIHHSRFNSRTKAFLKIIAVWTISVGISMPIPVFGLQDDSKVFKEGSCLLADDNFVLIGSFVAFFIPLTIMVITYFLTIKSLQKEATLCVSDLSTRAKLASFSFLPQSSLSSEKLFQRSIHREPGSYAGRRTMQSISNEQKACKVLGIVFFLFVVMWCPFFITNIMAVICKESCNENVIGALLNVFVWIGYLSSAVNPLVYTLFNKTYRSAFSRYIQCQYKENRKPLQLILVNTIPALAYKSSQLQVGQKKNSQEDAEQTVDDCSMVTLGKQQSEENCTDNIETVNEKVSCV

NC(=O)C1(N2CCCCC2)CCN(CCCN2c3ccccc3CCc3ccccc32)CC1 [carpipramine, 5-[3-(4-carbamoyl-4-piperidinopiperidino)-1-propyl]-10,11-dihydrodibenz[b,f]azepine]
IC50 [1]: 3 nM | ED50 [2]: 8 mg/kg | LD50 [3]: 250 mg/kg | toxicity (mice): low toxicity
